A short description of data set [1]: Blood flow increasing effect in anesthetized rats (laser-Doppler cutaneous blood flow, AUC). It counts as in vivo. The conditions noted are these: i.v., rat. How it is done: (§1) The blood flow increasing effect and hypotensive effect of the compounds of the present invention were determined by the following experiment.
(§2) Male rats weighing 200-350 g were anesthetized with urethane (25% urethane, 6 ml/kg, s.c.). The carotid artery and jugular vein were cannulated with polyethylene tubes for measurement of blood pressure and for drug injection, respectively. Blood pressure was obtained with a disposable pressure transducer kit (Spectramed, Ltd) and recorded with a recticoder (model RJG-4128, Nihon kohden, Ltd). Blood flow was monitored as cutaneous blood flow of the dorsum pedis using an attachment-type laser-Doppler flowmeter (model ALF21, Advance, Ltd). Measurements were taken until the values recovered to the level observed before injection of drugs. Injection time was about 10 seconds. The hypotensive effect and blood flow increasing effect were calculated as the maximal hypotensive activity (mmHg) and the area under the curve (AUC) after injection of drugs, respectively.
(§3) The results were represented by the dose required to obtain an effective increase in blood flow (main effect), and by the hypotensive effect (side effect) at the same dose.
(§4) The compounds of the present invention were administered in the form of a liposome formulation (as prepared in Example 4 below). As a comparative compound, PGE1 1-decanoyloxyethyl ester (described in Example 10 of the specification of Japanese Patent Kokai No. 59-206349) was administered in the form of a lipid emulsion (prepared in Reference Example 8 in the present specification).
The effectiveness of increasing blood flow was determined by the following method. […] In the above-described experimental assessment system for the compounds of the present invention, the AUG for this PGE1 lipid emulsion (5 μg/kg, i.v.) was 771 on the blood flow increasing effect; thus this value was chosen as an effective value for increase in blood flow.

Data set [2] in a line: Hypotensive effect in anesthetized rats (carotid artery blood pressure). The class given is in vivo. The conditions noted are these: rat; for Hypotensive effect, Maximum hypotension on dose (A): at dose (A) giving AUC = 771, i.v.; for Hypotensive effect, Maximum hypotension: i.v. How it is done:
as §1, §2, §3, §4

[3] abbreviates: dose 1 μg/kg, Examples as liposome formulation, comparative compound as lipid emulsion.
Setting [4] is: dose 3 μg/kg, Examples as liposome formulation, comparative compound as lipid emulsion.
[5] abbreviates: dose 10 μg/kg, Examples as liposome formulation, comparative compound as lipid emulsion.
[6] abbreviates: Examples as liposome formulation, comparative compound as lipid emulsion.
Where [7] appears, read: dose 30 μg/kg, liposome formulation.

The values that follow come from patent US5690957A, “Prostaglandin derivatives” (Ono Pharmaceutical Co., Ltd., priority 1995, dated 1997).

SMILES strings stand for the structures.

In the case of `CCCCCCCCCC(=O)OC(C)OC(=O)CCCCCC[C@H]1C(=O)C[C@@H](O)[C@@H]1/C=C/[C@@H](O)CCCCC` (some centres unmarked) [Comparative compound, PGE1 1-decanoyloxyethyl ester, reference compound], the results for the “Blood flow increasing effect, Total AUC” value in data set [1] (setting [3]), in data set [1] (setting [4]) and in data set [1] (setting [5]) were 92, 222 and 498, respectively. For the same molecule, the “Blood flow increasing effect, Dose (A) required to obtain AUC = 771” value (shortened to “Blood flow increasing effect, Dose”) in data set [1] (setting [6]) came out at 16.70 µg/kg. Further, the “Hypotensive effect, Maximum hypotension on dose (A)” value (“Hypotensive effect … (A)” below) in data set [2] (setting [6]) came out at 30.2 mmHG. Further, the “Hypotensive effect, Maximum hypotension” value in data set [2] (setting [3]) was found to be 1 mmHg; in data set [2] (setting [4]), 9 mmHg; in data set [2] (setting [5]), 18 mmHg.
Regarding `CCCCCCCCCCCC(=O)OCCOC(=O)CCCCCC[C@H]1C(=O)C[C@@H](O)[C@@H]1/C=C/[C@@H](O)CCCCC` [Example 1, PGE1 (dodecanoyloxy)ethyl ester], the results for the “Blood flow increasing effect, Total AUC” value in data set [1] (setting [3]), in data set [1] (setting [4]) and in data set [1] (setting [5]) were 175, 1914 and 3528, respectively. Also, the “Blood flow increasing effect, Dose” value in data set [1] (setting [6]) worked out at 1.47 µg/kg. Also, the “Hypotensive effect … (A)” value in data set [2] (setting [6]) came to 4.3 mmHG. Further, the figures for the “Hypotensive effect, Maximum hypotension” value in data set [2] (setting [3]), in data set [2] (setting [4]) and in data set [2] (setting [5]) were 3 mmHg, 7 mmHg and 13 mmHg, respectively.
On to `CCCCCCCCCCCCCCCCOCC(=O)OCCOC(=O)CCCCCC[C@H]1C(=O)C[C@@H](O)[C@@H]1/C=C/[C@@H](O)CCCCC` [Example 2, PGE1 2-(hexadecyloxyacetoxy)ethyl ester], for which the “Blood flow increasing effect, Total AUC” value in data set [1] (setting [4]) stood at 329; in data set [1] (setting [5]), 807; in data set [1] (setting [7]), 3248. Moreover, in data set [1] (setting [6]), the “Blood flow increasing effect, Dose” value was 8.14 µg/kg. Besides, in data set [2] (setting [6]), the “Hypotensive effect … (A)” value came out at 6.1 mmHG. Besides, the “Hypotensive effect, Maximum hypotension” value in data set [2] (setting [4]) came out at 3 mmHg; in data set [2] (setting [5]), 7 mmHg; in data set [2] (setting [7]) it was 20 mmHg.
As to `CCCCCCCCCCCCOCC(=O)OCCOC(=O)CCCCCC[C@H]1C(=O)C[C@@H](O)[C@@H]1/C=C/[C@@H](O)CCCCC` [Example 3, PGE1 2-(dodecyloxyacetoxy)ethyl ester], the results for the “Blood flow increasing effect, Total AUC” value in data set [1] (setting [3]), in data set [1] (setting [4]) and in data set [1] (setting [5]) were 227, 4028 and 5391, respectively. The “Blood flow increasing effect, Dose” value in data set [1] (setting [6]) is 1.14 µg/kg. Further, the “Hypotensive effect … (A)” value in data set [2] (setting [6]) was 2.8 mmHG. The “Hypotensive effect, Maximum hypotension” value turned out to be 2 mmHg in data set [2] (setting [3]), 9 mmHg in data set [2] (setting [4]) and 9 mmHg in data set [2] (setting [5]).
